Measured values published in patent publication US12162888B2, “Carboxamides as ubiquitin-specific protease inhibitors” (Valo Early Discovery, Inc., priority 2018, dated 2024).

biological target: T1, USP28 (His-tagged USP28-FL-mammalian) (Homo sapiens, UniProt Q96RU2); assay: Ubiquitin-Rhodamine 110 Assay for USP28 Activity, Example A-1(a); type: biochemical; details: Ubiquitin-Rhodamine 110 biochemical assay, read-out: USP28 A-1(a) IC50 range
T1 construct: Expression of USP28 (1-1077)-TEV-6*His (pTT5 vector) was carried out in Expi293f cells; made in house; host or cells: Expi293F cells (pTT5 vector)
T1 sequence (Q96RU2 1-1077): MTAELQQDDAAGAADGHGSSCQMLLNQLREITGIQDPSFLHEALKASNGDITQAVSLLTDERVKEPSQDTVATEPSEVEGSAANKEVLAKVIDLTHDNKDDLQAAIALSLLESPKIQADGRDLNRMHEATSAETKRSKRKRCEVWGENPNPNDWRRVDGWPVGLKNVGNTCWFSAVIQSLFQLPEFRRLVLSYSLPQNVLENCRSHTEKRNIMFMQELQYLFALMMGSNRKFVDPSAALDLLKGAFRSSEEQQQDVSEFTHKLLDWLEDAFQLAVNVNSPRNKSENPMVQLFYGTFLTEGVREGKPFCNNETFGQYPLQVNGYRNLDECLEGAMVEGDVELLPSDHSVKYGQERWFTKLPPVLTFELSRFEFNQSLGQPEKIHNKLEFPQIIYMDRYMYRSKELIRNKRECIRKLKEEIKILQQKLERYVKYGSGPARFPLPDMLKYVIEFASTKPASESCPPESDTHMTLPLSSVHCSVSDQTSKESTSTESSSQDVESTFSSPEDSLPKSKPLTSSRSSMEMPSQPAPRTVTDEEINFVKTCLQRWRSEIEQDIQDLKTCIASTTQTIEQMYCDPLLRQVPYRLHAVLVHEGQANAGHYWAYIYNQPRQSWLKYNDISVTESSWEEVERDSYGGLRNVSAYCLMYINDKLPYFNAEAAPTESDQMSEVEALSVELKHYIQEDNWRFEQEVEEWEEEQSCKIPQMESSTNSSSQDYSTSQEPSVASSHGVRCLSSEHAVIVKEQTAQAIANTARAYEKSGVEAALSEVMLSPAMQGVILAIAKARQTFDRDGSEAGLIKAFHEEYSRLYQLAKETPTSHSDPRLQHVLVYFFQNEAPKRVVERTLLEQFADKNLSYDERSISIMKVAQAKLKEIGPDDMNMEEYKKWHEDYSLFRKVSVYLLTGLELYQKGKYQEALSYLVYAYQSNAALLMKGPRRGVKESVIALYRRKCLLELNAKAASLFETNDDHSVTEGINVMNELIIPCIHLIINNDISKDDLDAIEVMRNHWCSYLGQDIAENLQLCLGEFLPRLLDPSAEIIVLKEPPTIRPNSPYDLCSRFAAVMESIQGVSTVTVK
Procedure: Example A-1(a): Biochemical Assay: Ubiquitin-Rhodamine 110 Assay for USP28 Activity
The assay was performed in a final volume of 9 μL in assay buffer containing 20 mM Tris-HCl (pH 8.0, (1M Tris-HCl, pH 8.0 solution; Corning 46-031-CM)), 3 mM BME (2-Mercaptoethanol; Sigma 63689-25ML-F), 0.03% BGG (0.22 μM filtered, Sigma, G7516-25G), and 0.01% Triton X-100 (Sigma, T9284-10L). Nanoliter quantities of 10-point, 3-fold serial dilution in DMSO was pre-dispensed into 1536 assay plates (Corning, #3724BC) for a final test concentration of 25 μM to 1.3 nM, top to lowest dose, respectively. Enzyme USP28, construct His-tagged USP28-FL-mammalian, (protein expression and purification procedure described below). Concentration and incubation times were optimized for the maximal signal-to-background while maintaining initial velocity conditions at a fixed substrate concentration. The final concentration of the enzyme in the assay was […]. Final substrate (Ub-Rh110; Ubiquitin-Rhodamine 110, UbiQ-126) concentration was 25 nM with [Ub-Rh110]<<Km. 3 μL of 2× enzyme was added to assay plates (pre-stamped with compound) preincubated with […] for 30 minutes and then 3 μL of 2× Ub-Rh110 was added to assay plates. Plates were incubated for 45 minutes at room temperature before addition of 3 μL of stop solution (final concentration of 10 mM citric acid (Sigma, 251275-500G)). Fluorescence was read on the Envision (Excitation at 485 nm and Emission at 535 nm; Perkin Elmer) or on the PheraSTAR (Excitation at 485 nm and Emission at 535 nm; BMG Labtech).
Procedure for the Protein expression and purification for construct His-tagged USP28-FL-mammalian
Expression of USP28 (1-1077)-TEV-6*His (pTT5 vector) was carried out in Expi293f cells (sequence derived from uniprot ID: Q96RU2-1). Cells were re-suspended in lysis buffer B 50 mM Bicine, pH 8.0, 20 mM NaCl, 5% glycerol, 0.1% CHAPS, 5 mM β-ME, 1 mM PMSF, 1 ug/ml Leupeptin, 1 ug/ml Pepstatin) and lysed by sonication. Insoluble material was removed by centrifugation and the supernatant was loaded onto a Ni-NTA column (GE Healthcare) equilibrated with Ni Buffer A (50 mM Bicine, pH 8.0, 20 mM NaCl, 5% glycerol, 0.1% CHAPS, 5 mM R-ME.) and washed with Ni Buffer A+20 mM imidazole until A280 reached baseline. The protein was eluted with Ni Buffer B (50 mM Bicine, pH 8.0, 20 mM NaCl, 5% glycerol, 0.1% CHAPS, 5 mM β-ME, 300 mM imidazole.). The protein was further purified using a Superdex™ 200 10/300 GL column (GE Healthcare) equilibrated with 50 mM Bicine, pH 8.0, 20 mM NaCl, 5% glycerol, 0.1% CHAPS, 5 mM β-ME. The protein was concentrated to 2.5 mg ml-1, flash-frozen in liquid N2 and stored at −80° C.
For assay formats Example A-1(a), A-1(b), and A-2, data were reported as percent inhibition compared with control wells based on the following equation: % inh=1−((FLU−AveLow)/(AveHigh−AveLow)) where FLU=measured Fluorescence, AveLow=average Fluorescence of no enzyme control (n=16), and AveHighh=average Fluorescence of DMSO control (n=16). IC50 values were determined by curve fitting of the standard 4 parameter logistic fitting algorithm included in the Activity Base software package: IDBS XE Designer Model 205. Data is fitted using the Levenburg Marquardt algorithm.

Molecule | IC50
3-amino-N-[(6S)-2-[(3R,4S)-3-(methoxymethyl)-4-[(^2H3)methylamino]pyrrolidin-1-yl]-5,6,7,8-tetrahydroquinolin-6-yl]-6-methylthieno[2,3-b]pyridine-2-carboxamide [Example 487] | 200 to 2000 nM
Cc1ccc2c(N)c(C(=O)N[C@H]3CCc4nc(N5C[C@H](COC(F)F)[C@H](N)C5)ccc4C3)sc2n1 [Example 517, 3-amino-N-[(6S)-2-[(3S,4S)-3-amino-4-[(difluoromethoxy)methyl]pyrrolidin-1-yl]-5,6,7,8-tetrahydroquinolin-6-yl]-6-methylthieno[2,3-b]pyridine-2-carboxamide] | 50 to 200 nM
3-amino-N-[(6S)-2-[(3S,4R)-3-(methoxymethyl)-4-[(^2H3)methylamino]pyrrolidin-1-yl]-5,6,7,8-tetrahydroquinolin-6-yl]-6-methylthieno[2,3-b]pyridine-2-carboxamide [Example 486] | 50 to 200 nM
CO[C@@H]1CCCN(c2ccc3c(n2)CC[C@H](NC(=O)c2sc4nc(C)ccc4c2N)C3)C[C@H]1N [Example 493, 3-amino-N-[(6S)-2-[(3R,4R)-3-amino-4-methoxyazepan-1-yl]-5,6,7,8-tetrahydroquinolin-6-yl]-6-methylthieno[2,3-b]pyridine-2-carboxamide] | 1 to 50 nM
Cc1ccc2c(N)c(C(=O)N[C@H]3CCc4nc(N5C[C@@H](COC(F)(F)F)[C@@H](N)C5)ccc4C3)sc2n1 [Example 484, 3-amino-N-[(6S)-2-[(3R,4R)-3-amino-4-[(trifluoromethoxy)methyl]pyrrolidin-1-yl]-5,6,7,8-tetrahydroquinolin-6-yl]-6-methylthieno[2,3-b]pyridine-2-carboxamide] | 200 to 2000 nM
Cc1ccc2c(N)c(C(=O)N[C@H]3CCc4nc(N5C[C@@H](COC(F)F)[C@@H](N)C5)ccc4C3)sc2n1 [Example 516, 3-amino-N-[(6S)-2-[(3R,4R)-3-amino-4-[(difluoromethoxy)methyl]pyrrolidin-1-yl]-5,6,7,8-tetrahydroquinolin-6-yl]-6-methylthieno[2,3-b]pyridine-2-carboxamide] | 50 to 200 nM
CN[C@H]1CN(c2ccc3c(n2)CC[C@H](NC(=O)c2sc4nc(C)cnc4c2N)C3)C[C@H]1OC [Example 496, 7-amino-N-[(6S)-2-[(3R,4S)-3-methoxy-4-(methylamino)pyrrolidin-1-yl]-5,6,7,8-tetrahydroquinolin-6-yl]-3-methylthieno[2,3-b]pyrazine-6-carboxamide] | 200 to 2000 nM
CO[C@H]1CN(c2ccc3c(n2)CC[C@H](NC(=O)c2sc4nc(C)cnc4c2N)C3)C[C@H]1N [Example 492, 7-amino-N-[(6S)-2-[(3R,4S)-3-amino-4-methoxypyrrolidin-1-yl]-5,6,7,8-tetrahydroquinolin-6-yl]-3-methylthieno[2,3-b]pyrazine-6-carboxamide] | 50 to 200 nM
COC[C@@H]1CN(c2ccc3c(n2)CC[C@H](NC(=O)c2sc4cnccc4c2N)C3)C[C@@H]1N [Example 500, 3-amino-N-[(6S)-2-[(3R,4R)-3-amino-4-(methoxymethyl)pyrrolidin-1-yl]-5,6,7,8-tetrahydroquinolin-6-yl]thieno[2,3-c]pyridine-2-carboxamide] | > 2000 nM

same assay, conditions: biochemical IC50 range, Ubiquitin-Rhodamine 110 assay, read-out: USP28 A-1(a)

Molecule | IC50
CO[C@H]1CCCN(c2cc(F)c3c(c2)OC[C@H](NC(=O)c2sc4nc(C)ccc4c2N)C3)C[C@H]1N [Example 691, 3-amino-N-[(3R)-7-[(3R,4S)-3-amino-4-methoxyazepan-1-yl]-5-fluoro-3,4-dihydro-2H-1-benzopyran-3-yl]-6-methylthieno[2,3-b]pyridine-2-carboxamide] | 50 to 200 nM
Cc1ccc2c(N)c(C(=O)N[C@H]3COc4nc(N5C[C@H](CF)[C@@H](N)C5)ccc4C3)sc2n1 [Example 541, 3-amino-N-[(3R)-7-[(3R,4S)-3-amino-4-(fluoromethyl)pyrrolidin-1-yl]-2H,3H,4H-pyrano[2,3-b]pyridin-3-yl]-6-methylthieno[2,3-b]pyridine-2-carboxamide] | 200 to 2000 nM
Cc1ccc2c(N)c(C(=O)N[C@H]3COc4nc(N5C[C@@H](N)C6(C5)OCCO6)ccc4C3)sc2n1 [Example 544, 3-amino-N-[(3R)-7-[(9R)-9-amino-1,4-dioxa-7-azaspiro[4.4]nonan-7-yl]-2H,3H,4H-pyrano[2,3-b]pyridin-3-yl]-6-methylthieno[2,3-b]pyridine-2-carboxamide] | 200 to 2000 nM
Cc1ccc2c(N)c(C(=O)N[C@H]3COc4nc(N5C[C@H](N)C6(C5)OCCO6)ccc4C3)sc2n1 [Example 543, 3-amino-N-[(3R)-7-[(9S)-9-amino-1,4-dioxa-7-azaspiro[4.4]nonan-7-yl]-2H,3H,4H-pyrano[2,3-b]pyridin-3-yl]-6-methylthieno[2,3-b]pyridine-2-carboxamide] | 200 to 2000 nM
Cc1ccc2c(N)c(C(=O)N[C@H]3COc4cc(N5C[C@H](N)[C@]6(CCCCO6)C5)ccc4C3)sc2n1 [Example 652, 3-amino-N-[(3R)-7-[(4S,5S)-4-amino-6-oxa-2-azaspiro[4.5]decan-2-yl]-3,4-dihydro-2H-1-benzopyran-3-yl]-6-methylthieno[2,3-b]pyridine-2-carboxamide] | 1 to 50 nM
CNc1ncc(C(=O)N[C@H]2COc3cc(N4CCNCC4)ccc3C2)c2[nH]ccc12 [Example 674, 4-(methylamino)-N-[(3R)-7-(piperazin-1-yl)-3,4-dihydro-2H-1-benzopyran-3-yl]-1Hpyrrolo[3,2-c]pyridine-7-carboxamide] | 200 to 2000 nM
Cc1ccc2c(N)c(C(=O)N[C@H]3COc4cc(N5CC6[C@H](C5)NCC6(F)F)ccc4C3)sc2n1 (stereo partly drawn) [Example 655, N-[(3R)-7-[(6aR)-3,3-difluorooctahydropyrrolo[3,4-b]pyrrol-5-yl]-3,4-dihydro-2H-1-benzopyran-3-yl]-3-amino-6-methylthieno[2,3-b]pyridine-2-carboxamide] | 1 to 50 nM
